Data taken from patent publication US9730940B2, “Purine inhibitors of human phosphatidylinositol 3-kinase delta” (priority 2012, dated 2017).

Each molecule was assayed against PI3K-alpha (Homo sapiens (Human), UniProt P42336) (assay: HTRF PI3K biochemical assay, alpha isoform). Details: ratio PI3K-alpha IC50 value/PI3K-delta IC50 value.
Chain of PI3K-alpha (P42336 whole entry, looked up, canonical isoform): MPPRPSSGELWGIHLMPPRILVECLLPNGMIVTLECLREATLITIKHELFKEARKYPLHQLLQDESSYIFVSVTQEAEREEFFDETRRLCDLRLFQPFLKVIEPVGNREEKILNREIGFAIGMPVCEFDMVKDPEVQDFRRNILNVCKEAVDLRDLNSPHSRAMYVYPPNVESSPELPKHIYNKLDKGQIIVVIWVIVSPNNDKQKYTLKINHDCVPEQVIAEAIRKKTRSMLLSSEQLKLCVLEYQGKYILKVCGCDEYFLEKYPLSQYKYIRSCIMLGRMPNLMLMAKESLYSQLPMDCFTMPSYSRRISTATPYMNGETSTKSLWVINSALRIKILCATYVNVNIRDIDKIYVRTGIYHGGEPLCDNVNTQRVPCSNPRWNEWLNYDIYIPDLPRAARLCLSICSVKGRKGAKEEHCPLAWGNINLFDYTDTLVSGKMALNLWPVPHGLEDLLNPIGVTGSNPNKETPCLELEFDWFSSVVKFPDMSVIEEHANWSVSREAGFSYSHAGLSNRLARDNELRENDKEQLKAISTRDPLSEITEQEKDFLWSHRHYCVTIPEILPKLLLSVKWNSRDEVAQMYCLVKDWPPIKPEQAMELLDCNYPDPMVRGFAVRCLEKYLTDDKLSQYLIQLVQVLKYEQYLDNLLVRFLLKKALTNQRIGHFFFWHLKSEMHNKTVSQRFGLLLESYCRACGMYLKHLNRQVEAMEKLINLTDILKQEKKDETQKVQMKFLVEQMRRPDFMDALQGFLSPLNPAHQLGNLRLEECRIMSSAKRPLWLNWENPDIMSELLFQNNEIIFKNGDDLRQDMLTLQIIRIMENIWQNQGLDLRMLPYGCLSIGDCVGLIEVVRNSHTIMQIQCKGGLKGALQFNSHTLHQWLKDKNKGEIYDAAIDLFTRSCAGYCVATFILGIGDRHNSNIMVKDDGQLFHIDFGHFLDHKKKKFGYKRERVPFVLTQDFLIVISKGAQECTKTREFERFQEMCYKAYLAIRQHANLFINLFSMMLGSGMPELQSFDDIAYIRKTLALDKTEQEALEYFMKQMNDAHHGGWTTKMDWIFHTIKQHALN
Chain of PI3K-alpha (P27986 whole entry partner, looked up, canonical isoform): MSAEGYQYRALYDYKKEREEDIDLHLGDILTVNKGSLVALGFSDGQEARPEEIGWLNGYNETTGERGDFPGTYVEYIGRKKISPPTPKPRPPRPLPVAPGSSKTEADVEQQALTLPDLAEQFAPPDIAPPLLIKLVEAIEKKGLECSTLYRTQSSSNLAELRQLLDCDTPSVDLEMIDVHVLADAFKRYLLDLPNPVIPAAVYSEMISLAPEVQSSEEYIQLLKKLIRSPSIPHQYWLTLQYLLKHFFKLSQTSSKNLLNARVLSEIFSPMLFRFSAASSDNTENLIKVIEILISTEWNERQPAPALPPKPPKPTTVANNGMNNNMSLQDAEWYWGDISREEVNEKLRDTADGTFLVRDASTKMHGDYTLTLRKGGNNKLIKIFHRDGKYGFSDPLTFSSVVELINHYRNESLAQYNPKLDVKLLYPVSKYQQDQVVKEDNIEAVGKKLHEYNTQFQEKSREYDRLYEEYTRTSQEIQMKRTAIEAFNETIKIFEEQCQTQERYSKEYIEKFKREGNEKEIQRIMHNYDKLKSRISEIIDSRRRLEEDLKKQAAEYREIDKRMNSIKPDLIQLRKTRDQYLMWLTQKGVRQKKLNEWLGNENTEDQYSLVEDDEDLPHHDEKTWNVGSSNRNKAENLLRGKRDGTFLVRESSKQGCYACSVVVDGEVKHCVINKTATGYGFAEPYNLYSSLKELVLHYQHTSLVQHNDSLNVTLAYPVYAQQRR
`CCn1ncc(-c2nc3c(S[C@H]4CCN(C(=O)c5coc(C)n5)C4)ncnc3n2C)c1C` [Compound 10-11, (S)-(3-((8-(1-ethyl-5-methyl-1H-pyrazol-4-yl)-9-methyl-9H-purin-6-yl)thio)pyrrolidin-1-yl)(2-methyloxazol-4-yl)methanone] was tested, and the “Relative Selectivity versus PI3Kalpha” value was over 10.
`CCn1ncc(-c2nc3c(S[C@H]4CCN(c5ccncn5)C4)ncnc3n2C)c1C` [Compound 10-12, (S)-8-(1-ethyl-5-methyl-1H-pyrazol-4-yl)-9-methyl-6-((1-(pyrimidin-4-yl)pyrrolidin-3-yl)thio)-9H-purine] was tested, and the “Relative Selectivity versus PI3Kalpha” value was over 10.
For `CCn1ncc(-c2nc3c(S[C@H]4CCN(c5ncnc6sccc56)C4)ncnc3n2C)c1C` [Compound 10-13, (S)-4-(3-((8-(1-ethyl-5-methyl-1H-pyrazol-4-yl)-9-methyl-9H-purin-6-yl)thio)pyrrolidin-1-yl)thieno[2,3-d]pyrimidine], the “Relative Selectivity versus PI3Kalpha” value was over 10.
With `CCn1ncc(-c2nc3c(CC4CCN(C(=O)OC(C)(C)C)C4)ncnc3n2C)c1C` (stereo not drawn) [Compound 11-1, tert-butyl 3-((8-(1-ethyl-5-methyl-1H-pyrazol-4-yl)-9-methyl-9H-purin-6-yl)methyl)pyrrolidine-1-carboxylate] the “Relative Selectivity versus PI3Kalpha” value was over 10.
`CCn1ncc(-c2nc3c(CC4CCN(C(=O)C5CCOCC5)C4)ncnc3n2C)c1C` (stereo not drawn) [Compound 11-2, (3-((8-(1-ethyl-5-methyl-1H-pyrazol-4-yl)-9-methyl-9H-purin-6-yl)methyl)pyrrolidin-1-yl)(tetrahydro-2H-pyran-4-yl)methanone] was tested, and the “Relative Selectivity versus PI3Kalpha” value was over 10.
`CCC(=O)N1CCC(Cc2ncnc3c2nc(-c2cnn(CC)c2C)n3C)C1` (stereo not drawn) [Compound 11-3, 1-(3-((8-(1-ethyl-5-methyl-1H-pyrazol-4-yl)-9-methyl-9H-purin-6-yl)methyl)pyrrolidin-1-yl)propan-1-one] was tested, and the “Relative Selectivity versus PI3Kalpha” value was over 10.
`CCC(=O)N1CC[C@H](Oc2ncnc3c2nc(Oc2cccc(C)c2C)n3C)C1` [Compound 12-1, 8-(2,3-dimethylphenoxy)-9-methyl-6-{[(3S)-1-propanoylpyrrolidin-3-yl]oxy}-9H-purine] was tested, and the “Relative Selectivity versus PI3Kalpha” value was 4.
`CCC(=O)N1CC[C@H](Oc2ncnc3c2nc(Oc2cc(F)cc(OC)c2)n3C)C1` [Compound 12-2, 8-(3-fluoro-5-methoxyphenoxy)-9-methyl-6-{[(3S)-1-propanoylpyrrolidin-3-yl]oxy}-9H-purine] was tested, and the “Relative Selectivity versus PI3Kalpha” value was over 10.
In the case of `CCC(=O)N1CC[C@H](Oc2ncnc3c2nc(Oc2cnc(C)nc2)n3C)C1` [Compound 12-3, 9-methyl-8-[(2-methylpyrimidin-5-yl)oxy]-6-{[(3S)-1-propanoylpyrrolidin-3-yl]oxy}-9H-purine], the “Relative Selectivity versus PI3Kalpha” value is reported as over 10.
For `CCC(=O)N1CC[C@H](Oc2ncnc3c2nc(Oc2ccc(OC)c(F)c2)n3C)C1` [Compound 12-4, 8-(3-fluoro-4-methoxyphenoxy)-9-methyl-6-{[(3S)-1-propanoylpyrrolidin-3-yl]oxy}-9H-purine], the “Relative Selectivity versus PI3Kalpha” value was over 10.
`CCn1c(N(C)CC(C)C)nc2c(O[C@H]3CCN(C(=O)OC(C)(C)C)C3)ncnc21` [Compound 13-1, tert-butyl (3S)-3-({9-ethyl-8-[methyl(2-methylpropyl)amino]-9H-purin-6-yl}oxy)pyrrolidine-1-carboxylate] was tested, and the “Relative Selectivity versus PI3Kalpha” value was over 10.
In the case of `CCn1c(N(C)CCO)nc2c(O[C@H]3CCN(C(=O)OC(C)(C)C)C3)ncnc21` [Compound 13-2, tert-butyl (3S)-3-({9-ethyl-8-[(2-hydroxyethyl)(methyl)amino]-9H-purin-6-yl}oxy)pyrrolidine-1-carboxylate], the “Relative Selectivity versus PI3Kalpha” value is reported as over 10.
For `CCn1c(N2CCC(S(C)(=O)=O)C2)nc2c(O[C@H]3CCN(C(=O)OC(C)(C)C)C3)ncnc21` (stereo partly drawn) [Compound 13-3, tert-butyl (3S)-3-({9-ethyl-8-[3-(methylsulfonyl)pyrrolidin-1-yl]-9H-purin-6-yl}oxy)pyrrolidine-1-carboxylate], the “Relative Selectivity versus PI3Kalpha” value was over 10.
`CCn1c(N2CCC(C)CC2)nc2c(O[C@H]3CCN(C(=O)OC(C)(C)C)C3)ncnc21` [Compound 13-4, tert-butyl (3S)-3-{[9-ethyl-8-(4-methylpiperidin-1-yl)-9H-purin-6-yl]oxy}pyrrolidine-1-carboxylate] was tested, and the “Relative Selectivity versus PI3Kalpha” value was over 10.
`CCn1c(N2CCC(c3ccccc3)CC2)nc2c(O[C@H]3CCN(C(=O)OC(C)(C)C)C3)ncnc21` [Compound 13-5, tert-butyl (3S)-3-{[9-ethyl-8-(4-phenylpiperidin-1-yl)-9H-purin-6-yl]oxy}pyrrolidine-1-carboxylate] was tested, and the “Relative Selectivity versus PI3Kalpha” value was over 10.
For `CCn1c(N(C)CCOC)nc2c(O[C@H]3CCN(C(=O)OC(C)(C)C)C3)ncnc21` [Compound 13-6, tert-butyl (3S)-3-({9-ethyl-8-[(2-methoxyethyl)(methyl)amino]-9H-purin-6-yl}oxy)pyrrolidine-1-carboxylate], the “Relative Selectivity versus PI3Kalpha” value was over 10.
`CCn1c(N(C)C(C)C)nc2c(O[C@H]3CCN(C(=O)OC(C)(C)C)C3)ncnc21` [Compound 13-7, tert-butyl (3S)-3-({9-ethyl-8-[methyl(1-methylethyl)amino]-9H-purin-6-yl}oxy)pyrrolidine-1-carboxylate] was tested, and the “Relative Selectivity versus PI3Kalpha” value was over 10.
For `CCn1c(N2CCC(C)C2)nc2c(O[C@H]3CCN(C(=O)OC(C)(C)C)C3)ncnc21` (stereo partly drawn) [Compound 13-8, tert-butyl (3S)-3-{[9-ethyl-8-(3-methylpyrrolidin-1-yl)-9H-purin-6-yl]oxy}pyrrolidine-1-carboxylate], the “Relative Selectivity versus PI3Kalpha” value was over 10.
`CCC(=O)N1CC[C@H](Oc2ncnc3c2nc(C2=CCOCC2)n3CC)C1` [Compound 14-1, 8-(3,6-dihydro-2H-pyran-4-yl)-9-ethyl-6-{[(3S)-1-propanoylpyrrolidin-3-yl]oxy}-9H-purine] was tested, and the “Relative Selectivity versus PI3Kalpha” value was over 10.
`CCC(=O)N1CC[C@H](Oc2ncnc3c2nc(C2CC2)n3C)C1` [Compound 14-2, 8-cyclopropyl-9-methyl-6-{[(3S)-1-propanoylpyrrolidin-3-yl]oxy}-9H-purine] was tested, and the “Relative Selectivity versus PI3Kalpha” value was over 10.
With `CCC(=O)N1CC[C@H](Oc2ncnc3c2nc(CC(C)C)n3CC)C1` [Compound 14-3, 9-ethyl-8-(2-methylpropyl)-6-{[(3S)-1-propanoylpyrrolidin-3-yl]oxy}-9H-purine] the “Relative Selectivity versus PI3Kalpha” value was over 10.
In the case of `CCC(=O)N1CC[C@H](Oc2ncnc3c2nc(CC(C)C)n3C)C1` [Compound 14-4, 9-methyl-8-(2-methylpropyl)-6-{[(3S)-1-propanoylpyrrolidin-3-yl]oxy}-9H-purine], the “Relative Selectivity versus PI3Kalpha” value is reported as over 10.
In the case of `CCC(=O)N1CC[C@H](Oc2ncnc3c2nc(C(F)F)n3CC)C1` [Compound 14-5, 8-(difluoromethyl)-9-ethyl-6-{[(3S)-1-propanoylpyrrolidin-3-yl]oxy}-9H-purine], the “Relative Selectivity versus PI3Kalpha” value is reported as over 10.
In the case of `CCC(=O)N1CC[C@H](Oc2ncnc3c2nc(C(F)(F)F)n3CC)C1` [Compound 14-6, 9-ethyl-6-{[(3S)-1-propanoylpyrrolidin-3-yl]oxy}-8-(trifluoromethyl)-9H-purine], the “Relative Selectivity versus PI3Kalpha” value is reported as over 10.
`CCC(=O)N1CC[C@H](Oc2ncnc3c2nc(C(F)(F)F)n3C)C1` [Compound 14-7, 9-methyl-6-{[(3S)-1-propanoylpyrrolidin-3-yl]oxy}-8-(trifluoromethyl)-9H-purine] was tested, and the “Relative Selectivity versus PI3Kalpha” value was over 10.
In the case of `CCn1c(C(=O)NCC(F)(F)F)nc2c(O[C@H]3CCN(C(=O)OC(C)(C)C)C3)ncnc21` [Compound 15-1, tert-butyl (3S)-3-({9-ethyl-8-[(2,2,2-trifluoroethyl)carbamoyl]-9H-purin-6-yl}oxy)pyrrolidine-1-carboxylate], the “Relative Selectivity versus PI3Kalpha” value is reported as over 10.
In the case of `CCn1c(C(=O)NCC(F)(F)F)nc2c(O[C@H]3CCN(C(=O)N4CC(OC)C4)C3)ncnc21` [Compound 15-2, (S)-9-ethyl-6-((1-(3-methoxyazetidine-1-carbonyl)pyrrolidin-3-yl)oxy)-N-(2,2,2-trifluoroethyl)-9H-purine-8-carboxamide], the “Relative Selectivity versus PI3Kalpha” value is reported as over 10.
With `CCn1c(C(=O)NCC2CC2)nc2c(O[C@H]3CCN(C(=O)OC(C)(C)C)C3)ncnc21` [Compound 15-3, tert-butyl (3S)-3-({8-[(cyclopropylmethyl)carbamoyl]-9-ethyl-9H-purin-6-yl}oxy)pyrrolidine-1-carboxylate] the “Relative Selectivity versus PI3Kalpha” value was over 10.
For `CCn1c(C(=O)NC2CCCCC2)nc2c(O[C@H]3CCN(C(=O)OC(C)(C)C)C3)ncnc21` [Compound 15-4, tert-butyl (3S)-3-{[8-(cyclohexylcarbamoyl)-9-ethyl-9H-purin-6-yl]oxy}pyrrolidine-1-carboxylate], the “Relative Selectivity versus PI3Kalpha” value was over 10.
With `CCNC(=O)c1nc2c(O[C@H]3CCN(C(=O)OC(C)(C)C)C3)ncnc2n1CC` [Compound 15-5, tert-butyl (3S)-3-{[9-ethyl-8-(ethylcarbamoyl)-9H-purin-6-yl]oxy}pyrrolidine-1-carboxylate] the “Relative Selectivity versus PI3Kalpha” value was over 10.
